Reference: patent US6403535B1, “Substituted thiazol(in) ylideneamino sulfonylamino (thio)carbonyl-triazolinones” (Bayer Aktiengesellschaft, priority 1998, dated 2002)

What was measured:
weeds [1] = experiment: Post-emergence test, activity against weeds; format: in vivo
Procedure: (§1) To produce a suitable preparation of active compound, 1 part by weight of active compound is mixed with the stated amount of solvent, the stated amount of emulsifier is added and the concentrate is diluted with water to the desired concentration.
(§2) Test plants of a height of 5 -15 cm are sprayed with the preparation of active compound such that the particular amounts of active compound desired are applied per unit area. The concentration of the spray liquor is chosen so that the particular amounts of active compound desired are applied in 1000 l of water/ha.
(§3) After three weeks, the degree of damage to the plants is rated in % damage in comparison to the development of the untreated control.
(§4) 0%=no effect (like untreated control)

Veronica [2] = experiment: Pre-emergence test/greenhouse; format: in vivo; settings: 504 h, after three weeks, read-out: degree of damage, Veronica; for pest or weed control at 125 g/ha: 125 g of a.i./ha
Procedure: as §1
(§5) Seeds of the test plants are sown in normal soil. After about 24 hours, the soil is sprayed with the preparation of active compound such that the particular amount of active compound desired is applied per unit area. The concentration of the spray liquor is chosen so that the particular amount of active compound desired is applied in 1000 liters of water per hectare.
as §3, §4

Amaranthus [3] = experiment: Pre-emergence test/greenhouse; format: in vivo; settings: 504 h, after three weeks, read-out: degree of damage, Amaranthus; for pest or weed control at 125 g/ha: 125 g of a.i./ha
Procedure: as §1, §5, §3, §4

Setaria [4] = experiment: Pre-emergence test/greenhouse; format: in vivo; settings: after three weeks
Procedure: as §1, §5, §3, §4

Matricaria [5] = experiment: Pre-emergence test/greenhouse; format: in vivo; settings: 504 h, after three weeks, read-out: degree of damage, Matricaria; for pest or weed control at 125 g/ha: 125 g of a.i./ha
Procedure: as §1, §5, §3, §4

Echinochloa [6] = experiment: Pre-emergence test/greenhouse; format: in vivo; settings: 504 h, after three weeks, read-out: degree of damage, Echinochloa; for pest or weed control at 125 g/ha: 125 g of a.i./ha
Procedure: as §1, §5, §3, §4

Polygonum = experiment: Post-emergence test/greenhouse; format: in vivo; settings: 60 g of a.i./ha, after three weeks
Procedure: as §1, §2, §3, §4

Veronica [7] = experiment: Post-emergence test/greenhouse; format: in vivo; settings: 60 g of a.i./ha, after three weeks
Procedure: as §1, §2, §3, §4

Amaranthus [8] = experiment: Post-emergence test/greenhouse; format: in vivo; settings: 504 h, after three weeks, read-out: degree of damage, Amaranthus; for pest or weed control at 60 g/ha: 60 g of a.i./ha; for pest or weed control at 125 g/ha: 125 g of a.i./ha
Procedure: as §1, §2, §3, §4

Echinochloa [9] = experiment: Post-emergence test/greenhouse; format: in vivo; settings: 60 g of a.i./ha, after three weeks
Procedure: as §1, §2, §3, §4

Sorghum = experiment: Post-emergence test/greenhouse; format: in vivo; settings: 60 g of a.i./ha, after three weeks
Procedure: as §1, §2, §3, §4

weeds [10] = experiment: Pre-emergence test, activity against weeds; format: in vivo
Procedure: as §1, §5, §3, §4

Abutilon = experiment: Post-emergence test/greenhouse; format: in vivo; settings: 504 h, after three weeks, read-out: degree of damage, Abutilon; for pest or weed control at 60 g/ha: 60 g of a.i./ha; for pest or weed control at 125 g/ha: 125 g of a.i./ha
Procedure: as §1, §2, §3, §4

Solanum = experiment: Post-emergence test/greenhouse; format: in vivo; settings: 504 h, after three weeks, read-out: degree of damage, Solanum; for pest or weed control at 60 g/ha: 60 g of a.i./ha; for pest or weed control at 125 g/ha: 125 g of a.i./ha
Procedure: as §1, §2, §3, §4

Setaria [11] = experiment: Post-emergence test/greenhouse; format: in vivo; settings: after three weeks
Procedure: as §1, §2, §3, §4

Stellaria = experiment: Post-emergence test/greenhouse; format: in vivo; settings: 504 h, after three weeks, read-out: degree of damage, Stellaria; for pest or weed control at 60 g/ha: 60 g of a.i./ha; for pest or weed control at 125 g/ha: 125 g of a.i./ha
Procedure: as §1, §2, §3, §4

Chenopodium [12] = experiment: Post-emergence test/greenhouse; format: in vivo; settings: 504 h, after three weeks, read-out: degree of damage, Chenopodium; for pest or weed control at 60 g/ha: 60 g of a.i./ha; for pest or weed control at 125 g/ha: 125 g of a.i./ha
Procedure: as §1, §2, §3, §4

Chenopodium [13] = experiment: Pre-emergence test/greenhouse; format: in vivo; settings: after three weeks
Procedure: as §1, §5, §3, §4

Digitaria = experiment: Pre-emergence test/greenhouse; format: in vivo; settings: 125 g of a.i./ha, after three weeks
Procedure: as §1, §5, §3, §4

Sugar beet = experiment: Pre-emergence test/greenhouse; format: in vivo; settings: 125 g of a.i./ha, after three weeks, 0%=no effect, 100%=total destruction
Procedure: as §1, §5, §3, §4

Maize = experiment: Pre-emergence test/greenhouse; format: in vivo; settings: 125 g of a.i./ha, after three weeks, 0%=no effect, 100%=total destruction
Procedure: as §1, §5, §3, §4

Matricaria [14] = experiment: Post-emergence test/greenhouse; format: in vivo; settings: 60 g of a.i./ha, after three weeks
Procedure: as §1, §2, §3, §4

| SMILES | activity against weeds (weeds [1]) | activity against weeds (weeds [10]) | degree of damage, Chenopodium (Chenopodium [13]; 125 g of a.i./ha) | pest or weed control at 125 g/ha (Veronica [2]) | pest or weed control at 125 g/ha (Amaranthus [3]) | pest or weed control at 125 g/ha (Matricaria [5]) | pest or weed control at 125 g/ha (Echinochloa [6]) | pest or weed control at 125 g/ha (Abutilon) | pest or weed control at 125 g/ha (Amaranthus [8]) | pest or weed control at 125 g/ha (Solanum) | pest or weed control at 125 g/ha (Stellaria) | other results |
| --- | --- | --- | --- | --- | --- | --- | --- | --- | --- | --- | --- | --- |
| CCOc1nn(C(=O)NS(=O)(=O)/N=c2\sccn2CCCF)c(=O)n1C [Example 1] | very strong activity | very strong activity |  |  |  |  |  |  |  |  |  | melting point: 178 °C; pest or weed control at 60 g/ha (Veronica [2]; 60 g of a.i./ha): 100%; pest or weed control at 60 g/ha (Amaranthus [3]; 60 g of a.i./ha): 100%; degree of damage, Setaria (Setaria [4]; 60 g of a.i./ha): 100%; pest or weed control at 60 g/ha (Matricaria [5]; 60 g of a.i./ha): 100%; pest or weed control at 60 g/ha (Echinochloa [6]; 60 g of a.i./ha): 100%; degree of damage, Polygonum (Polygonum): 90%; degree of damage, Veronica (Veronica [7]): 90%; pest or weed control at 60 g/ha (Amaranthus [8]): 95%; degree of damage, Echinochloa (Echinochloa [9]): 95%; degree of damage, Sorghum (Sorghum): 95% |
| CCCc1nn(C(=O)NS(=O)(=O)/N=c2\sccn2CCC)c(=O)n1C [Example 2] | very strong activity |  |  |  |  |  |  |  |  |  |  | pest or weed control at 60 g/ha (Abutilon): 90%; pest or weed control at 60 g/ha (Amaranthus [8]): 90%; pest or weed control at 60 g/ha (Solanum): 95%; degree of damage, Setaria (Setaria [11]; 60 g of a.i./ha): 90%; pest or weed control at 60 g/ha (Stellaria): 90% |
| CCCn1ccs/c1=N\S(=O)(=O)NC(=O)n1nc(OC(C)C)n(C)c1=O [Example 9] | very strong activity |  |  |  |  |  |  |  |  |  |  | pest or weed control at 60 g/ha (Abutilon): 90%; pest or weed control at 60 g/ha (Chenopodium [12]): 80%; pest or weed control at 60 g/ha (Amaranthus [8]): 90%; pest or weed control at 60 g/ha (Stellaria): 90% |
| CCCn1ccs/c1=N\S(=O)(=O)NC(=O)n1nc(OC)n(C2CC2)c1=O [Example 29] |  | very strong activity | 100% | 100% | 100% | 95% | 95% |  |  |  |  |  |
| CCCn1ccs/c1=N\S(=O)(=O)NC(=O)n1nc(OCC)n(C2CC2)c1=O [Example 30] |  | very strong activity | 100% | 100% | 100% | 100% | 95% |  |  |  |  | degree of damage, Digitaria (Digitaria): 90% |
| CCCn1ccs/c1=N\S(=O)(=O)NC(=O)n1nc(OC(C)C)n(C2CC2)c1=O [Example 33] | very strong activity | very strong activity | 100% | 95% | 100% | 100% | 80% | 100% | 100% | 95% | 95% | pest or weed control at 125 g/ha (Chenopodium [12]): 100%; degree of damage, Setaria (Setaria [11]; 125 g of a.i./ha): 80% |
| CCCn1ccs/c1=N\S(=O)(=O)NC(=O)n1nc(OC2CC2)n(C2CC2)c1=O [Example 34] | very strong activity |  |  |  |  |  |  | 95% | 100% | 100% | 100% | pest or weed control at 125 g/ha (Chenopodium [12]): 100%; degree of damage, Setaria (Setaria [11]; 125 g of a.i./ha): 70% |
| CCCn1ccs/c1=N\S(=O)(=O)NC(=O)n1nc(C2CC2)n(C)c1=O [Example 41] | very strong activity |  |  |  |  |  |  | 90% | 90% | 90% | 95% | degree of damage, Setaria (Setaria [11]; 125 g of a.i./ha): 70% |
| CCCn1ccs/c1=N\S(=O)(=O)NC(=O)n1nc(OCC2CC2)n(C)c1=O [Example 48] | very strong activity |  |  |  |  |  |  | 80% | 95% | 80% | 80% | pest or weed control at 125 g/ha (Chenopodium [12]): 100% |
| CCCn1ccs/c1=N\S(=O)(=O)NC(=O)n1nc(OCC)n(CC)c1=O [Example 49] | very strong activity |  |  |  |  |  |  | 70% | 100% | 95% | 95% | pest or weed control at 125 g/ha (Chenopodium [12]): 100% |
| C/C=C/c1nn(C(=O)NS(=O)(=O)/N=c2\sccn2CCC)c(=O)n1C1CC1 [Example 51] |  | very strong activity | 95% | 100% | 100% | 100% |  |  |  |  |  |  |
| CCCc1nn(C(=O)NS(=O)(=O)/N=c2\sccn2CCC)c(=O)n1C1CC1 [Example 55] | very strong activity |  |  |  |  |  |  | 95% | 100% | 90% | 100% | pest or weed control at 125 g/ha (Chenopodium [12]): 100% |
| CCCn1ccs/c1=N\S(=O)(=O)NC(=O)n1nc(OCC)n(C2CC2)c1=O [Example 56] |  |  |  |  |  |  |  |  |  |  |  | degree of damage, Chenopodium (Chenopodium [13]; 250 g of a.i./ha): 100%; pest or weed control at 250 g/ha (Veronica [2]; 250 g of a.i./ha): 100%; pest or weed control at 250 g/ha (Amaranthus [3]; 250 g of a.i./ha): 100%; degree of damage, Setaria (Setaria [4]; 250 g of a.i./ha): 100%; pest or weed control at 250 g/ha (Matricaria [5]; 250 g of a.i./ha): 100% |
| COc1nn(C(=O)NS(=O)(=O)/N=c2\sccn2CCCF)c(=O)n1C [Example 124] |  | very strong activity |  | 95% | 70% | 100% | 90% |  |  |  |  | melting point: 189 °C; degree of damage, Sugar beet (Sugar beet): 0%; degree of damage, Setaria (Setaria [4]; 125 g of a.i./ha): 95%; degree of damage, Maize (Maize): 0% |
| CC(C)Oc1nn(C(=O)NS(=O)(=O)/N=c2/sccn2CCCF)c(=O)n1C [Example 125] | very strong activity | very strong activity | 95% | 100% | 70% | 100% | 90% |  |  |  |  | melting point: 170 °C; pest or weed control at 60 g/ha (Abutilon): 90%; degree of damage, Polygonum (Polygonum): 90%; pest or weed control at 60 g/ha (Solanum): 90%; pest or weed control at 60 g/ha (Stellaria): 90% |
| CCOc1nn(C(=O)NS(=O)(=O)/N=c2\sccn2CCCF)c(=O)n1C1CC1 [Example 130] | very strong activity | very strong activity | 100% | 100% | 100% | 100% | 100% |  |  |  |  | melting point: 180 °C; pest or weed control at 60 g/ha (Abutilon): 95%; pest or weed control at 60 g/ha (Chenopodium [12]): 100%; degree of damage, Veronica (Veronica [7]): 100%; pest or weed control at 60 g/ha (Amaranthus [8]): 100%; degree of damage, Matricaria (Matricaria [14]): 100%; pest or weed control at 60 g/ha (Stellaria): 95% |
| CC(C)Oc1nn(C(=O)NS(=O)(=O)/N=c2\sccn2CCCF)c(=O)n1C1CC1 [Example 131] | very strong activity | very strong activity | 95% | 95% | 100% | 100% | 80% |  |  |  |  | melting point: 154 °C; pest or weed control at 60 g/ha (Abutilon): 90%; pest or weed control at 60 g/ha (Chenopodium [12]): 95%; degree of damage, Veronica (Veronica [7]): 90%; pest or weed control at 60 g/ha (Amaranthus [8]): 100%; degree of damage, Matricaria (Matricaria [14]): 95%; pest or weed control at 60 g/ha (Stellaria): 95% |
